For 15 molecules, IC50 results are on record in patent US7074789B2, “Kinase inhibitors” (Amgen Inc., priority 1999, dated 2006).

Common to all, as to format: biochemical
The target in one experiment is T1, AKT (Homo sapiens, UniProt Q9Y243).
T1 construct: Kinases are expressed as either kinase domains or full length constructs; made in house
The experiment can be described thus: Kinase inhibition assay (33P transfer), AKT. The conditions noted are these: Table 2, kinase inhibition class; read-out: AKT3-1. The gist of the method:
(§1)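 Radiometric readout: 33P incorporated into surface-bound poly(Glu,Tyr) 4:1 or poly(Arg,Ser) 3:1 is counted by liquid scintillation after a 0.5% phosphoric acid wash. Enzymes were GST or polyHis fusions (kinase domain or full length) from E. coli or High Five insect cells.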

The target of the next experiment is T2, EGFR (Homo sapiens, UniProt P00533).
T2 construct: Kinases are expressed as either kinase domains or full length constructs; made in house
The experiment can be described thus: Kinase inhibition assay (33P transfer), EGFR. The conditions noted are these: Table 2, kinase inhibition class; read-out: EGFR-1. The gist of the method:
(§2)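 Kinase domains or full-length enzymes, GST- or polyHis-tagged, were expressed in E. coli or baculovirus High Five cells and affinity-purified. Transfer of 33PO4 from ATP onto plate-bound poly(Glu,Tyr) 4:1 or poly(Arg,Ser) 3:1 was counted by liquid scintillation after a 0.5% phosphoric acid wash. IC50 = concentration halving incorporation.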

Another experiment has as its target T3, Zap-70 (Homo sapiens, UniProt P43403).
T3 construct: Kinases are expressed as either kinase domains or full length constructs; made in house
T3 sequence (P43403 1-619): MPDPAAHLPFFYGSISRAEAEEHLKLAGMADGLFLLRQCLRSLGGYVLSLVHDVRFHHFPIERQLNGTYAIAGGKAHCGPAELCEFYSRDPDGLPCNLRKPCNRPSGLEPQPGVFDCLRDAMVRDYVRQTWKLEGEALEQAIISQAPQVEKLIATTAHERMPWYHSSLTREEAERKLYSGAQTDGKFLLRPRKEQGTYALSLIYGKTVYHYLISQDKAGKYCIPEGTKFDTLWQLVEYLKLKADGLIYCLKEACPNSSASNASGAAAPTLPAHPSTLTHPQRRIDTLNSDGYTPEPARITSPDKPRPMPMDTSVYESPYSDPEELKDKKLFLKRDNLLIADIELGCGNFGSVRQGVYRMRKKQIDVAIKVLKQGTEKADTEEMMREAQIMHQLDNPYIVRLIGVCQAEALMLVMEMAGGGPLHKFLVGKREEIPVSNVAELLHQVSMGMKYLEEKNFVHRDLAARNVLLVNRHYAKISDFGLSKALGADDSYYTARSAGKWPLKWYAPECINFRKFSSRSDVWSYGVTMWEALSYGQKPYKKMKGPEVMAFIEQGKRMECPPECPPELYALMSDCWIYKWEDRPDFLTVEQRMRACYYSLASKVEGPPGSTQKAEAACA
The experiment can be described thus: Kinase inhibition assay (33P transfer), Zap-70. The conditions noted are these: read-out: Zap-1. The method, boiled down: as §1

Another experiment addresses T4, Lck (Homo sapiens, UniProt P06239).
T4 construct: Kinases are expressed as either kinase domains or full length constructs; made in house
The experiment can be described thus: Kinase inhibition assay (33P transfer), Lck. The conditions noted are these: read-out: Lck-1. The method, boiled down:
as §1

Experiment [1] has as its target T5, IGFR-1 (Homo sapiens, UniProt P08069).
T5 construct: Kinases are expressed as either kinase domains or full length constructs; made in house
In words: Kinase inhibition assay (33P transfer), IGFR-1. The conditions noted are these: Table 2, kinase inhibition class.

The next experiment addresses T6, Kdr (Homo sapiens, UniProt P35968).
T6 construct: Kinases are expressed as either kinase domains or full length constructs; made in house
The experiment can be described thus: Kinase inhibition assay (33P transfer), Kdr. To be noted: read-out: KDR-1. The method, boiled down: as §1

The next experiment has as its target T7, Itk (Homo sapiens, UniProt Q08881).
T7 construct: Kinases are expressed as either kinase domains or full length constructs; made in house
T7 sequence (Q08881 1-620): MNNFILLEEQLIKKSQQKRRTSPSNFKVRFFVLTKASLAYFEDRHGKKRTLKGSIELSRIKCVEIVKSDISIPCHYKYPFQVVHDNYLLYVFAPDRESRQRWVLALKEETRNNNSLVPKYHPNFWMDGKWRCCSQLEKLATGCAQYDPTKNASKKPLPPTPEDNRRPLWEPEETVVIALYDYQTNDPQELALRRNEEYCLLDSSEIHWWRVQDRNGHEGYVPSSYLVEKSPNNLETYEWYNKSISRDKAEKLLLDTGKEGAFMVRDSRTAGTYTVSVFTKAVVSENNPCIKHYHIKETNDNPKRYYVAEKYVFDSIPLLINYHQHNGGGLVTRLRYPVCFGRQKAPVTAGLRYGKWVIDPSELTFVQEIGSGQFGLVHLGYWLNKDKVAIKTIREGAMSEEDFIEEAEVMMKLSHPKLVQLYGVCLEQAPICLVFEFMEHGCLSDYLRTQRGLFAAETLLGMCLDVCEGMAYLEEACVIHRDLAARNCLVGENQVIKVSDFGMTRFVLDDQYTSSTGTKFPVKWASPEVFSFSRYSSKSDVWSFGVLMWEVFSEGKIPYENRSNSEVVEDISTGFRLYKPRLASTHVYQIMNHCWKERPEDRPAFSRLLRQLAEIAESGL
In words: Kinase inhibition assay (33P transfer), Itk. To be noted: read-out: Itk-1. The method, boiled down: as §2

A further experiment has as its target T8, c-Met (Homo sapiens, UniProt P08581).
T8 construct: Kinases are expressed as either kinase domains or full length constructs; made in house
In words: Kinase inhibition assay (33P transfer), c-Met. To be noted: Table 2, kinase inhibition class; read-out: Met-1. The method, boiled down:
as §2

In the next experiment the target is T9, ErbB2 (Homo sapiens, UniProt P04626).
T9 construct: Kinases are expressed as either kinase domains or full length constructs; made in house
In words: Kinase inhibition assay (33P transfer), ErbB2. To be noted: read-out: ErbB2-2. The method, boiled down: as §2

Another experiment addresses T10, PDGFRB (Homo sapiens, UniProt P09619).
T10 construct: Kinases are expressed as either kinase domains or full length constructs; made in house
In words: Kinase inhibition assay (33P transfer), PDGFRB. The conditions noted are these: read-out: PDGFRB-1.

Experiment [2] has as its target T5, IGFR-1. The experiment can be described thus: Kinase inhibition assay, IGFR-1 (Table 2). The conditions noted are these: Table 2, kinase inhibition class.

Where two headings read alike, the source gives them in different places. Where only a bound is given, the exact number is not on record here.

T5 sequence (P08069 31-1367): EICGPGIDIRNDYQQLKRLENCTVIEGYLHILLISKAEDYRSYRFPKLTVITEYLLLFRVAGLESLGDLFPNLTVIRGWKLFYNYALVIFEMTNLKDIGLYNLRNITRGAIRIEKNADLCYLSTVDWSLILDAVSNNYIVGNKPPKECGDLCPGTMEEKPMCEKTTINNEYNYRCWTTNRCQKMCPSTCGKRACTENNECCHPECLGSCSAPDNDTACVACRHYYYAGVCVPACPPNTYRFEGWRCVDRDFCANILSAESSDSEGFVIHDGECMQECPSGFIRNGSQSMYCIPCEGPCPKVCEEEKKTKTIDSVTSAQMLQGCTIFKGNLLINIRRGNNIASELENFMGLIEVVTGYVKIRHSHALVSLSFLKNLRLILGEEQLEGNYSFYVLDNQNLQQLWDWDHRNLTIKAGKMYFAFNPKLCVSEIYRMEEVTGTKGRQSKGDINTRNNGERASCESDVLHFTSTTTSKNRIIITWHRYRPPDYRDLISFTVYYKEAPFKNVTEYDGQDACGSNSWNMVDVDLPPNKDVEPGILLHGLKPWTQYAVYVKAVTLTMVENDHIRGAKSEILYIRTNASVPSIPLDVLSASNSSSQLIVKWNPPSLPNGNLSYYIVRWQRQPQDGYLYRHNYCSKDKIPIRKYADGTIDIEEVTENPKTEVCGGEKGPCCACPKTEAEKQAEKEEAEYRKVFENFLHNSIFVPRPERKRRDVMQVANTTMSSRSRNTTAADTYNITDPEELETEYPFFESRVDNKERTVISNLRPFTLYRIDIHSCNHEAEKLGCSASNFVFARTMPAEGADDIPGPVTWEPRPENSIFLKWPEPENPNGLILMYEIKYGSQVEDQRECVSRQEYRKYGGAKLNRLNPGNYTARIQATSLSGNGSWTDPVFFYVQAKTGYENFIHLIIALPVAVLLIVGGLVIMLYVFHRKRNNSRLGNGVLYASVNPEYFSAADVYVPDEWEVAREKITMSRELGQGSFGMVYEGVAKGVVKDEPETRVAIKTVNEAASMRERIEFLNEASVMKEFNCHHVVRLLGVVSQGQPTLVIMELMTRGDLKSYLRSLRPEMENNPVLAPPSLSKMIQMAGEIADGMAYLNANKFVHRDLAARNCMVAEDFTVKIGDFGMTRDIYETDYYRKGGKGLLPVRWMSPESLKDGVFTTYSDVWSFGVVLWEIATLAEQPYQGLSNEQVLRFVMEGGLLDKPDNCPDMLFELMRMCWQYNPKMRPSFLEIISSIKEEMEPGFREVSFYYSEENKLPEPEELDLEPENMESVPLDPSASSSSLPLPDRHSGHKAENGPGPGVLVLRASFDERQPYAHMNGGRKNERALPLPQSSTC
T10 sequence (P09619 33-1106, species assumed): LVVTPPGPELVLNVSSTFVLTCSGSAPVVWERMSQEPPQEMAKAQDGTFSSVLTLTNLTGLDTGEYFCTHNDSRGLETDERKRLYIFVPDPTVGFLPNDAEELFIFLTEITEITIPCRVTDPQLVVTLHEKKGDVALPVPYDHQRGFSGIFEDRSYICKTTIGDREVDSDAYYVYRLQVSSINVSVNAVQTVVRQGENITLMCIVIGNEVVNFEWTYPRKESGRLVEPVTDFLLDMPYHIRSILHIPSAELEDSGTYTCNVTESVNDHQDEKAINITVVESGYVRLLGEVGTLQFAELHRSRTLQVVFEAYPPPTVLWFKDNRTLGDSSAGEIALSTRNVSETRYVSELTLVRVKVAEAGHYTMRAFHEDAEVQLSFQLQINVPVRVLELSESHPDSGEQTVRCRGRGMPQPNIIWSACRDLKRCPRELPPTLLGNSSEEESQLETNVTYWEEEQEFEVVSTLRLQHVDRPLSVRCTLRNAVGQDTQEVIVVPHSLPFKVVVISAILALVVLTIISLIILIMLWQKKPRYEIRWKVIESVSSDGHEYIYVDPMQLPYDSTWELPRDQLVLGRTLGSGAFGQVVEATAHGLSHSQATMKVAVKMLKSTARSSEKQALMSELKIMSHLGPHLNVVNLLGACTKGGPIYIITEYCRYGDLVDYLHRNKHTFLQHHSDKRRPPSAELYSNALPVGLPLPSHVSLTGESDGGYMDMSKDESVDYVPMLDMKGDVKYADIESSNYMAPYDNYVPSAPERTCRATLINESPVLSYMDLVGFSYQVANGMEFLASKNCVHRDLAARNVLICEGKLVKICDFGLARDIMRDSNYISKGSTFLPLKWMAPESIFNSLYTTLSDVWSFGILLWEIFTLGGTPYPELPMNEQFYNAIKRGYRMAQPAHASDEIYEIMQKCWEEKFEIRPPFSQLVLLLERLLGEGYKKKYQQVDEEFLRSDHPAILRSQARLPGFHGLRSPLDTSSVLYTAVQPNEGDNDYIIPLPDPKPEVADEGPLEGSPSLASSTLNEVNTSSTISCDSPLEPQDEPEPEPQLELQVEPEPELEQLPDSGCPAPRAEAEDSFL
T4 sequence (P06239 whole entry, species assumed, the tested form may be a part): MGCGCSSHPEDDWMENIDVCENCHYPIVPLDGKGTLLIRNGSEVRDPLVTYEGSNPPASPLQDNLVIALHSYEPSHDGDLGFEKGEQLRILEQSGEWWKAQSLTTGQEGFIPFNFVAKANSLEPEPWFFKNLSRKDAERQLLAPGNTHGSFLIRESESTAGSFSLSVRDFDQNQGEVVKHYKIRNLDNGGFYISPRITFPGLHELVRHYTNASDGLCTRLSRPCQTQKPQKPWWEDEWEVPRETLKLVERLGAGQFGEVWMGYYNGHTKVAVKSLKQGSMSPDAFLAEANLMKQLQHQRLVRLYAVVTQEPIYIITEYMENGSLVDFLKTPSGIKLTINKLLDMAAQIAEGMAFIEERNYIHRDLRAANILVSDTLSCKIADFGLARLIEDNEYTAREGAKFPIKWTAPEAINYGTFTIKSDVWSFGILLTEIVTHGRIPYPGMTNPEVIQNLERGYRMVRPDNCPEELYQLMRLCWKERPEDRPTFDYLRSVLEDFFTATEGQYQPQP
T1 sequence (Q9Y243 whole entry, the tested form may be a part): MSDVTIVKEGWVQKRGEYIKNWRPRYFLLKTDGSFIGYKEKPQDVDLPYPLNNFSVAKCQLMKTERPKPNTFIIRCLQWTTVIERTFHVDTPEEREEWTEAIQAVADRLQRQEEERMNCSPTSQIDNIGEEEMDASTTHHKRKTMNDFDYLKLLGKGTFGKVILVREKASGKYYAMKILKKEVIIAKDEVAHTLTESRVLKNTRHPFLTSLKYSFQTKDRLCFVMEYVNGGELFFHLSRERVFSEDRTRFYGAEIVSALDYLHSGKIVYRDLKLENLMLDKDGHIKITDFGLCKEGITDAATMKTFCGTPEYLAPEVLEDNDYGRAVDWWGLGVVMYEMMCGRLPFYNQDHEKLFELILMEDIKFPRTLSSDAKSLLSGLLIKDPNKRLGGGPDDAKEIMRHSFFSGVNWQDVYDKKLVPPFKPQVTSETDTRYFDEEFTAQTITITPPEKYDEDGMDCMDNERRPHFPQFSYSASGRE
T9 sequence (P04626 23-1255, species assumed): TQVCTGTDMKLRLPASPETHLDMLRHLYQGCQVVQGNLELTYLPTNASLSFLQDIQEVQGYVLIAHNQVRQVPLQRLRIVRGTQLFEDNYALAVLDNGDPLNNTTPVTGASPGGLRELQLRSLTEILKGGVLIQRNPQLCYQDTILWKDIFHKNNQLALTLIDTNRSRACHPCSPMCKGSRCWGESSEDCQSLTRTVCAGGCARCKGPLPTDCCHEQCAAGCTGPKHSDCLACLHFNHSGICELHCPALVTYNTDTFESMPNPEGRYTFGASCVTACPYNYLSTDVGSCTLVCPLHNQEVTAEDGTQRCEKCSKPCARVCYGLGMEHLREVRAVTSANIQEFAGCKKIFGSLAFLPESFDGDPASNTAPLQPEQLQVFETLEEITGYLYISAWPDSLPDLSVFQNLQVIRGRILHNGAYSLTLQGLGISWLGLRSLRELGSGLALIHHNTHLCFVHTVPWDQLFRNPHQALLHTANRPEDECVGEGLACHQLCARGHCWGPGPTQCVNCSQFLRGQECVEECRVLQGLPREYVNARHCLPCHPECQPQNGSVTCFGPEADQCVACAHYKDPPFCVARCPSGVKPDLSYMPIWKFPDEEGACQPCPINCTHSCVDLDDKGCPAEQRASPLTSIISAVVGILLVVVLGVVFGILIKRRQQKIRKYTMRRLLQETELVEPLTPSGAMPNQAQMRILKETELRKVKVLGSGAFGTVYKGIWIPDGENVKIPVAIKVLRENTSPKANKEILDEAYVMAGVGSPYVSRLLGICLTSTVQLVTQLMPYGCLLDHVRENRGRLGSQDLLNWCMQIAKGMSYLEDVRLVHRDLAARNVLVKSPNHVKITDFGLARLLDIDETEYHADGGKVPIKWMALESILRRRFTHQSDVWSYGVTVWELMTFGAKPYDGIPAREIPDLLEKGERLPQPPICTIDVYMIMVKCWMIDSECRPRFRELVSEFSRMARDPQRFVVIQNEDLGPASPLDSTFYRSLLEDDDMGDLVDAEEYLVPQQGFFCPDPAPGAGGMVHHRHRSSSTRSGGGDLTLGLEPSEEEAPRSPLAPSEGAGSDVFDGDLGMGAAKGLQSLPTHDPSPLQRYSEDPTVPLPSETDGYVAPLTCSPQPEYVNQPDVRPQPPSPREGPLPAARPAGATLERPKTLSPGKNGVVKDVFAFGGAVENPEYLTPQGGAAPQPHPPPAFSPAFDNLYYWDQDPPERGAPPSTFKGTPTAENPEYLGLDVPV

For the molecule `COc1cc(Nc2ncnc(N)n2)cc(OC)c1OC` [Compound 925], the IC50 at AKT was over 16.2 µM; at EGFR, over 16.2 µM; on Zap-70 (Table 3), over 16.2 µM; on Lck (Table 3), 1.44 to 8.66 µM; on IGFR-1 [1], over 16.2 µM; at Kdr (Table 3), over 16.2 µM. Besides, the IC50 on Itk (Table 3) and at c-Met was over 16.2 µM in each case.

`COc1cc(Nc2ncnc(N3CCOCC3)n2)cc(OC)c1OC` [Compound 209]: the IC50 is 10.1 to 13 µM on AKT; over 13 µM on EGFR; over 13 µM on Zap-70 (Table 3); over 13 µM on Lck (Table 3); over 13 µM against IGFR-1 [1]; over 13 µM at Kdr (Table 3). The IC50 on Itk (Table 3) and at c-Met was over 13 µM throughout.

As to `COc1cc(C)c(Nc2ncnc(-c3cccs3)n2)cc1OC` [Compound 359], the IC50 at AKT, on EGFR, at Zap-70 (Table 3), on Lck (Table 3), against IGFR-1 [1] and on Kdr (Table 3) was over 13.7 µM throughout. Also, the IC50 on Itk (Table 3) and on c-Met was over 13.7 µM throughout.

Consider `COc1cc(Nc2ncnc(Cl)n2)cc(OC)c1OC` [Compound 924, 2-chloro-4-(3′,4′,5′-trimethoxyanilino)-1,3,5-triazine], for which the IC50 was over 15.2 µM on AKT; over 15.2 µM on EGFR; over 15.2 µM at Zap-70 (Table 3); over 15.2 µM on Lck (Table 3); over 15.2 µM against IGFR-1 [1]; 1.35 to 8.09 µM on Kdr (Table 3). Further, the IC50 on Itk (Table 3) and on c-Met was over 15.2 µM in each case.

In the case of `COc1ccc2c(c1)c(CCN(C)C)cn2-c1ncnc(Nc2cc(OC)c(OC)c(OC)c2)n1` [Compound 333], the IC50 at AKT, on EGFR, at Zap-70 (Table 3), on Lck (Table 3), against IGFR-1 [1] and at Kdr (Table 3) was over 9.4 µM each time. Further, the IC50 on Itk (Table 3) and on c-Met was over 9.4 µM each time.

With `FC(F)C(F)(F)Oc1cccc(Nc2ncnc(-c3ccnc(N4CCCCC4)c3)n2)c1` [Compound 346], the IC50 on AKT was over 10 µM; on EGFR, over 10 µM; at Zap-70 (Table 3), over 10 µM; at Lck (Table 3), over 10 µM; against IGFR-1 [1], over 10 µM; at Kdr (Table 3), 0.892 to 5.35 µM. Moreover, the IC50 at Itk (Table 3) and on c-Met was over 10 µM throughout.

On to `COC(=O)c1ccc(Nc2ncnc(-c3ccccc3)n2)cc1` [Compound 163], for which the IC50 on AKT, at EGFR, on Zap-70 (Table 3), on Lck (Table 3), on IGFR-1 [1] and at Kdr (Table 3) was over 14.7 µM throughout. In addition, the IC50 on Itk (Table 3) and at c-Met was over 14.7 µM throughout.

In the case of `COc1cc(Nc2ncnc(N3CCN(C(=O)OC(C)(C)C)CC3)n2)cc(OC)c1OC` [Compound 211], the IC50 at AKT was over 10.1 µM; at EGFR, over 10.1 µM; at Zap-70 (Table 3) it was over 10.1 µM; on Lck (Table 3), over 10.1 µM; against IGFR-1 [1], over 10.1 µM; at Kdr (Table 3) it was 5.38 to 7.84 µM. The IC50 at Itk (Table 3) and at c-Met was over 10.1 µM in each case.

Consider `CN(c1cccc(Cl)c1)c1ncnc(Nc2cc(C(C)(C)C)on2)n1` [Compound 754], for which the IC50 on AKT, on EGFR, at Zap-70, on Lck, on ErbB2 and at Kdr was over 12.5 µM each time. For the same molecule, the IC50 at PDGFRB, at Itk, at c-Met and on IGFR-1 [2] was over 12.5 µM throughout.

In the case of `CC1CCc2ccccc2N1c1ncnc(N2c3ccccc3CCC2C)n1` (centres unmarked) [Compound 622], the IC50 on AKT was over 12.1 µM; at EGFR, 6.46 to 9.42 µM; on Zap-70 it was over 12.1 µM; at Lck it was over 12.1 µM; on ErbB2, 6.46 to 9.42 µM; on Kdr, over 12.1 µM. The IC50 at PDGFRB was 9.42 to 12.1 µM; on Itk it was over 12.1 µM; on c-Met, over 12.1 µM; against IGFR-1 [2] it was over 12.1 µM.

Regarding `COc1cc(Nc2ncnc(N[C@@H]3CCCc4ccccc43)n2)cc(OC)c1OC` [Compound 620], the IC50 at AKT is over 11 µM; on EGFR it was 0.982 to 5.89 µM; on Zap-70 it was 8.59 to 11 µM; on Lck, 0.982 to 5.89 µM; on ErbB2, 8.59 to 11 µM; at Kdr, 8.59 to 11 µM. The IC50 is over 11 µM at PDGFRB, over 11 µM at Itk, 5.89 to 8.59 µM at c-Met and over 11 µM at IGFR-1 [2].

On to `COC(=O)c1ccc(-c2cc(Nc3ncnc(Nc4cccc(C(N)=O)c4)n3)[nH]n2)cc1` [Compound 990], for which the IC50 on AKT, on EGFR, on Zap-70, on Lck, on ErbB2 and on Kdr was over 10.5 µM throughout. For the same molecule, the IC50 on PDGFRB was over 10.5 µM; at Itk, 5.58 to 8.13 µM; at c-Met, 5.58 to 8.13 µM; on IGFR-1 [2] it was 0.929 to 5.58 µM.

As to `COC(=O)Cc1cccc(Nc2ncnc(-n3c(NCc4ccccn4)nc4ccccc43)n2)c1` [Compound 547], the IC50 is over 9.65 µM on AKT; over 9.65 µM on EGFR; over 9.65 µM on Zap-70; over 9.65 µM on Lck; over 9.65 µM on ErbB2; under 0.857 µM on Kdr. Further, the IC50 on PDGFRB, on Itk, at c-Met and on IGFR-1 [2] was over 9.65 µM each time.

On to `COc1cc(Nc2ncnc(Nc3ccc4c(c3)CCC4)n2)cc(OC)c1OC` [Compound 629], for which the IC50 was over 11.4 µM at AKT; 1.02 to 6.1 µM on EGFR; 6.1 to 8.9 µM on Zap-70; under 1.02 µM on Lck; 1.02 to 6.1 µM on ErbB2; 1.02 to 6.1 µM on Kdr. Besides, the IC50 on PDGFRB is under 1.02 µM; on Itk, 1.02 to 6.1 µM; on c-Met, 6.1 to 8.9 µM; at IGFR-1 [2], under 1.02 µM.

As to `COc1cc(Nc2ncnc(Nc3cc(C(F)(F)F)ccc3F)n2)cc(OC)c1OC` [Compound 618], the IC50 on AKT is 7.97 to 10.2 µM; on EGFR, under 0.91 µM; at Zap-70, over 10.2 µM; on Lck, 0.91 to 5.46 µM; at ErbB2, 5.46 to 7.97 µM; at Kdr, 0.91 to 5.46 µM. The IC50 on PDGFRB was 0.91 to 5.46 µM; on Itk it was 7.97 to 10.2 µM; at c-Met, 5.46 to 7.97 µM; against IGFR-1 [2], under 0.91 µM.
